Test results published in article PMC7180572, “5-Alkylamino-N-phenylpyrazine-2-carboxamides: Design, Preparation, and Antimycobacterial Evaluation” (Molecules, 2020).
Converted amounts (≈) assume the structure as drawn. “And” between values parts separate entries of the source, which are not always exact repeats. Equal entries are not always repeated. Where two headings read alike, the source gives them in different places.

Tests used:
[1] = tested on: Mycobacterium aurum DSM 43999 (ATCC 23366); test: Microdilution broth, modified Microplate Alamar Blue Assay, whole cell growth inhibition; assay type: cell-based; details: for MIC: Mycolicibacterium aurum, read-out: MIC Mycobacterium aurum
[2] = tested on: Mycobacterium tuberculosis H37Ra ITM-M006710 (ATCC 9431); test: as above; assay type: cell-based; details: for MIC: Mycobacterium tuberculosis, read-out: MIC Mtb H37Ra
HepG2 cells = test: HepG2 cytotoxicity, CellTiter 96 (MTS) assay; assay type: cell-based, human; details: for IC50: read-out: HepG2 IC50; for SI, selectivity index: IC50 (HepG2)/MIC against Mtb H37Ra (in µM)
[3] = tested on: Mycobacterium smegmatis DSM 43465 (ATCC 607); test: Microdilution broth, modified Microplate Alamar Blue Assay, whole cell growth inhibition; assay type: cell-based; details: for MIC: Mycolicibacterium smegmatis, read-out: MIC Mycobacterium smegmatis
[4] = tested on: Aspergillus fumigatus ATCC 204305; test: Antifungal microdilution broth method (EUCAST); assay type: cell-based
[5] = tested on: Trichophyton interdigitale ATCC 9533, CCM 8377; test: Antifungal microdilution broth method (EUCAST); assay type: cell-based
[6] = tested on: Candida krusei ATCC 6258, CCM 8271; test: Antifungal microdilution broth method (EUCAST); assay type: cell-based; details: Pichia kudriavzevii
[7] = tested on: Aspergillus flavus CCM 8363; test: Antifungal microdilution broth method (EUCAST); assay type: cell-based
[8] = tested on: Candida albicans ATCC 24433, CCM 8320; test: Antifungal microdilution broth method (EUCAST); assay type: cell-based
[9] = tested on: Candida parapsilosis ATCC 22019, CCM 8260; test: Antifungal microdilution broth method (EUCAST); assay type: cell-based; details: Lodderomyces parapsilosis
[10] = tested on: Absidia corymbifera CCM 8077 (Lichtheimia corymbifera); test: Antifungal microdilution broth method (EUCAST); assay type: cell-based
[11] = tested on: Candida tropicalis ATCC 750, CCM 8264; test: Antifungal microdilution broth method (EUCAST); assay type: cell-based
[12] = tested on: Acinetobacter baumanii ATCC 19606, DSM 30007; test: Antibacterial microdilution broth method (EUCAST); assay type: cell-based; details: Acinetobacter baumannii
[13] = tested on: Escherichia coli ATCC 25922, CCM 3954; test: Antibacterial microdilution broth method (EUCAST); assay type: cell-based; details: read-out: MIC EC
[14] = tested on: Enterococcus faecalis ATCC 29212, CCM 4224; test: Antibacterial microdilution broth method (EUCAST); assay type: cell-based; details: read-out: MIC EF
[15] = tested on: Pseudomonas aeruginosa ATCC 27853, CCM 3955; test: Antibacterial microdilution broth method (EUCAST); assay type: cell-based; details: read-out: MIC PA
[16] = tested on: Staphylococcus epidermidis ATCC 12228, CCM 4418; test: Antibacterial microdilution broth method (EUCAST); assay type: cell-based; details: read-out: MIC SE
[17] = tested on: Staphylococcus aureus methicillin resistant ATCC 43300, CCM 4750; test: microbe, parasite or virus in culture; assay type: cell-based; details: ATCC 43300 / CCM 4750 / MRSA, read-out: MIC MRSA
[18] = tested on: Klebsiella pneumoniae ATCC 10031, CCM 4415; test: Antibacterial microdilution broth method (EUCAST)
[19] = tested on: Staphylococcus aureus spp.aureus ATCC 29213, CCM 4223; test: Antibacterial microdilution broth method (EUCAST); assay type: cell-based; details: read-out: MIC SA
[20] = in vitro, Middlebrook 7H9 broth, resazurin
[21] = Homo sapiens, HepG2, 24 h incubation, > means higher concentration not reproducible due to precipitation
[22] = ATCC204305, 24 h, read-out: MIC AF
[23] = ATCC204305, 48 h, read-out: MIC AF
[24] = CCM8363, 24 h, read-out: MIC AFla
[25] = CCM8363, 48 h, read-out: MIC AFla
[26] = CCM8077, 24 h, read-out: MIC AC
[27] = CCM8077, 48 h, read-out: MIC AC

5-Chloro-N-(5-chloro-2-hydroxyphenyl)pyrazine-2-carboxamide [Compound 6]
MIC Mycobacterium aurum [1, 20]: ≥500 µg/mL
MIC Mtb H37Ra [2, 20]: ≥500 µg/mL
IC50 (HepG2 cells; 24 h incubation, > means higher concentration not reproducible due to precipitation): > 250 µM
MIC Mycobacterium smegmatis [3, 20]: ≥500 µg/mL

C[C@@H]1[C@H](O)[C@@H](C)/C=C/C=C/C=C/C=C/C=C/C=C/C=C/[C@H](O[C@@H]2O[C@H](C)[C@@H](O)[C@H](N)[C@@H]2O)C[C@@H]2O[C@](O)(C[C@@H](O)C[C@@H](O)[C@H](O)CC[C@@H](O)C[C@@H](O)CC(=O)O[C@H]1C)C[C@H](O)[C@H]2C(=O)O [Amphotericin B, amphotericin B, reference compound]
MIC ([4]; ATCC204305, 48 h, standards, read-out: MIC against Aspergillus fumigatus): 1 µg/mL
MIC ([5]; 72 h, standards, read-out: MIC against Trichophyton interdigitale): 2 µg/mL
MIC ([6]; 48 h, standards, read-out: MIC against C. krusei): 1 µg/mL
MIC ([6]; Table 3, standard, read-out: MIC CK (Candida krusei)): 1 µg/mL
MIC ([6]; Table 3, read-out: MIC CK (Candida krusei)): 1.08 µM
MIC ([7]; CCM8363, 48 h, standards, read-out: MIC against Aspergillus flavus): 8 µg/mL
MIC ([8]; 48 h, standards, read-out: MIC against Candida albicans): 0.5 µg/mL
MIC ([8]; Table 3, read-out: MIC CA (Candida albicans)): 0.54 µM
MIC ([8]; Table 3, standard, read-out: MIC CA (Candida albicans)): 0.5 µg/mL
MIC ([9]; 48 h, standards, read-out: MIC against C. parapsilosis): 0.5 µg/mL
MIC ([9]; Table 3, standard, read-out: MIC CP (Candida parapsilosis)): 0.5 µg/mL
MIC ([9]; Table 3, read-out: MIC CP (Candida parapsilosis)): 0.54 µM
MIC ([10]; CCM8077, 48 h, standards, read-out: MIC against Lichtheimia corymbifera): 0.5 µg/mL
MIC ([11]; 48 h, standards, read-out: MIC against C. tropicalis): 1 µg/mL

O=C(Nc1cccc(C(F)(F)F)c1)c1cnc(Cl)cn1 [Compound 1, 5-Chloro-N-(3-(trifluoromethyl)phenyl)pyrazine-2-carboxamide]
MIC [1, 20]: ≥ 500 µg/mL
MIC [2, 20]: 7.81 µg/mL
IC50 (HepG2 cells; [21]): 124 µM
SI, selectivity index (HepG2 cells): 4.78
MIC [3, 20]: ≥ 500 µg/mL

CCCNc1cnc(C(=O)Nc2cccc(C(F)(F)F)c2)cn1 [Compound 1a, 5-(Propylamino)-N-(3-(trifluoromethyl)phenyl)pyrazine-2-carboxamide]
melting point: 155 to 156 °C
MIC ([12]; 24h): > 500 µM
MIC ([12]; 48h): > 500 µM
MIC ([13]; 24 h): > 500 µM
MIC ([13]; 48 h): > 500 µM
MIC [4, 22]: > 125 µM
MIC [4, 23]: > 125 µM
MIC ([14]; 24 h): > 500 µM
MIC ([14]; 48 h): > 500 µM
MIC ([5]; 72 h, read-out: MIC TI): > 125 µM
MIC ([5]; 120 h, read-out: MIC TI): > 125 µM
MIC ([15]; 72 h): > 500 µM
MIC ([15]; 120 h): > 500 µM
MIC ([16]; 24 h): > 500 µM
MIC ([16]; 48 h): > 500 µM
MIC ([6]; 24 h, read-out: MIC CK): > 125 µM
MIC ([6]; 48 h, read-out: MIC CK): > 125 µM
MIC [7, 24]: > 125 µM
MIC [7, 25]: > 125 µM
MIC ([17]; 24 h): > 500 µM
MIC ([17]; 48 h): > 500 µM
MIC ([8]; 24 h, read-out: MIC CA): > 125 µM
MIC ([8]; 48 h, read-out: MIC CA): > 125 µM
MIC ([9]; 24 h, read-out: MIC CP): > 125 µM
MIC ([9]; 48 h, read-out: MIC CP): > 125 µM
MIC [1]: ≥ 500 µg/mL
MIC [10, 26]: > 125 µM
MIC [10, 27]: > 125 µM
MIC ([11]; 24 h, read-out: MIC CT): > 125 µM
MIC ([11]; 48 h, read-out: MIC CT): > 125 µM
MIC KP ([18]; 24h): > 500 µM
MIC KP ([18]; 48h): > 500 µM
MIC [2, 20]: 6.25 µg/mL
MIC ([19]; 24 h): > 500 µM
MIC ([19]; 48 h): > 500 µM
IC50 (HepG2 cells; Homo sapiens, HepG2, 24 h): > 25 µM
SI, selectivity index (HepG2 cells): >1.3
MIC [3]: ≥ 500 µg/mL

CCCCNc1cnc(C(=O)Nc2cccc(C(F)(F)F)c2)cn1 [Compound 1b, 5-(Butylamino)-N-(3-(trifluoromethyl)phenyl)pyrazine-2-carboxamide]
melting point: 141 to 142 °C
MIC ([12]; 24h): > 500 µM
MIC ([12]; 48h): > 500 µM
MIC ([13]; 24 h): > 500 µM
MIC ([13]; 48 h): > 500 µM
MIC [4, 22]: > 125 µM
MIC [4, 23]: > 125 µM
MIC ([14]; 24 h): > 500 µM
MIC ([14]; 48 h): > 500 µM
MIC ([5]; 72 h, read-out: MIC TI): > 125 µM
MIC ([5]; 120 h, read-out: MIC TI): > 125 µM
MIC ([15]; 72 h): > 500 µM
MIC ([15]; 120 h): > 500 µM
MIC ([16]; 24 h): > 500 µM
MIC ([16]; 48 h): > 500 µM
MIC ([6]; 24 h, read-out: MIC CK): > 125 µM
MIC ([6]; 48 h, read-out: MIC CK): > 125 µM
MIC [7, 24]: > 125 µM
MIC [7, 25]: > 125 µM
MIC ([17]; 24 h): > 500 µM
MIC ([17]; 48 h): > 500 µM
MIC ([8]; 24 h, read-out: MIC CA): > 125 µM
MIC ([8]; 48 h, read-out: MIC CA): > 125 µM
MIC ([9]; 24 h, read-out: MIC CP): > 125 µM
MIC ([9]; 48 h, read-out: MIC CP): > 125 µM
MIC [1]: 6.25 µg/mL (≈ 18.5 µM)
MIC [10, 26]: > 125 µM
MIC [10, 27]: > 125 µM
MIC ([11]; 24 h, read-out: MIC CT): > 125 µM
MIC ([11]; 48 h, read-out: MIC CT): > 125 µM
MIC KP ([18]; 24h): > 500 µM
MIC KP ([18]; 48h): > 500 µM
MIC ([2]; MIC converted to µM): 9.24 µM
MIC [2, 20]: 3.13 µg/mL
MIC ([19]; 24 h): > 500 µM
MIC ([19]; 48 h): > 500 µM
IC50 (HepG2 cells; Homo sapiens, HepG2, 24 h): 126 µM
SI, selectivity index (HepG2 cells): 14 and 13.6
MIC [3]: 3.13 µg/mL (≈ 9.25 µM)

O=C(Nc1cccc(O)c1)c1cnc(Cl)cn1 [Compound 2, 5-Chloro-N-(3-hydroxyphenyl)pyrazine-2-carboxamide]
MIC [1, 20]: ≥ 500 µg/mL
MIC [2, 20]: 31.2 µg/mL
IC50 (HepG2 cells; [21]): > 500 µM
SI, selectivity index (HepG2 cells): >3.99
MIC [3, 20]: ≥ 500 µg/mL
